The record followed here is patent publication US20170233414A1, “DERIVATIVES OF BODIPY” (OREGON HEALTH & SCIENCE UNIVERSITY, priority 2016, published 2017).

Structures are written as SMILES.

A short description of this data set: Fluorescence properties and quantum yield measurements of the BAA library. The format is physicochemical. Set-up: FWHM (full-width-at half max): unit not given here. The following applies: anhydrous DMSO; for λmax ABS / λmax EM: polystyrene 96 well plate; for FWHM (full-width-at half max): emission; for φfl (quantum yield): relative to reference fluorophore at three concentrations. How it is done: General Instruments. Synthesized sample purification was performed with an Agilent 1260 Infinity HPLC utilizing a C18 column (150mm×21.2 mm). MS (HRMS, ESI) spectra data was collected with an Agilent 6244 TOF LC/MS with diode array detector VL+ and C18 column (4.6 mm×50 mm). Absorbance and fluorescence data were measured on a SpectraMax M5 Microplate reader. NMR spectra, ^1H and ^13C, were recorded on a Bruker ARK400 spectrometer. BAA microscopy screening in cells for organelle specificity and signal-to-background ratio was completed with an Axio Zeiss Light Microscope and 63× oil immersion objective.
Fluorescence Properties and Quantum Yield Measurements. Spectroscopic characterizations were performed in anhydrous DMSO in polystyrene 96 well plate. Analysis included the maximum absorbance wavelength, maximum fluorescence emission wavelength, full-width-at half max, and quantum yield. Quantum yields (φfl) were determined by comparing the area under the emission spectrum of the BAA compound to a reference fluorophore solution at three concentrations using equation 1, where Grad represents the gradient from the plots of integrated fluorescence intensity vs absorbance at three concentrations and q is the refractive index of the solvent. Fluorescein in 0.1 M NaOH (φfl=0.91)^3 was the reference for samples with a max absorbance up to 510 nm, where an excitation of 470 nm was used with the emission integrated between 490 to 800 nm. Rhodamine B in ethanol (φfl=0.70) was the reference for samples with a max absorbance between 511-595 nm, where an excitation of 525 nm was used with the emission integrated between 545 to 800 nm. Cresyl violet in methanol (φfl=0.54)^4 was the reference for samples with a max absorbance above 595 nm, where an excitation of 570 nm was used with the emission integrated between 590 to 800 nm.

In the case of `CC1=CC(/C=C/c2ccc(-c3ccc(C(F)(F)F)cn3)cc2)=[N+]2C1=Cc1ccc(/C(=C\c3ccc(-c4ccc(C(F)(F)F)cn4)cc3)CC(=O)O)n1[B-]2(F)F` [BAA-23b], the “Stokes Shift” value is reported as 8 nm, the “λmax ABS” value worked out at 580 nm, the “λmax EM” value turned out to be 588 nm and the “FWHM (full-width-at half max)” value is recorded as 32. The “φfl (quantum yield)” value amounted to 0.19.

For the compound `CC1=CC(/C=C/c2cccc(I)c2)=[N+]2C1=Cc1ccc(/C(=C\c3cccc(I)c3)CC(=O)O)n1[B-]2(F)F` [BAA-24b], the “Stokes Shift” value is 9 nm, the “λmax ABS” value worked out at 570 nm, the “λmax EM” value is 579 nm and the “FWHM (full-width-at half max)” value was 32. Further, the “φfl (quantum yield)” value was 0.29.

Consider `CC1=CC(/C=C/c2ccc(Oc3ccc(Cl)cc3)cc2)=[N+]2C1=Cc1ccc(/C(=C\c3ccc(Oc4ccc(Cl)cc4)cc3)CC(=O)O)n1[B-]2(F)F` [BAA-27b], for which the “Stokes Shift” value was found to be 13 nm, the “λmax ABS” value stood at 575 nm, the “λmax EM” value is 588 nm and the “FWHM (full-width-at half max)” value worked out at 35. For the same compound, the “φfl (quantum yield)” value came to 0.33.

On to `CC1=CC(/C=C/c2cc(Cl)ccc2Cl)=[N+]2C1=Cc1ccc(/C(=C\c3cc(Cl)ccc3Cl)CC(=O)O)n1[B-]2(F)F` [BAA-29b], for which the “Stokes Shift” value was 11 nm, the “λmax ABS” value stood at 569 nm, the “λmax EM” value was 580 nm and the “FWHM (full-width-at half max)” value is recorded as 37. Further, the “φfl (quantum yield)” value is reported as 0.13.

As for `CC1=CC(C=Cc2cn(CCC(=O)O)c3ccccc23)=[N+]2C1=Cc1ccc(CCC(=O)O)n1[B-]2(F)F` [BAA-30a], the “Stokes Shift” value was determined as 36 nm, the “λmax ABS” value is listed as 607 nm, the “λmax EM” value is reported as 643 nm and the “FWHM (full-width-at half max)” value is recorded as 58. Further, the “φfl (quantum yield)” value is recorded as 0.43.

Turning to `CC1=CC(C=Cc2cc(F)ccc2O)=[N+]2C1=Cc1ccc(C(=Cc3cc(F)ccc3O)CC(=O)O)n1[B-]2(F)F` [BAA-31b], the “Stokes Shift” value turned out to be 12 nm, the “λmax ABS” value amounted to 576 nm, the “λmax EM” value was 588 nm and the “FWHM (full-width-at half max)” value is recorded as 34. Further, the “φfl (quantum yield)” value is 0.28.

Consider `CC1=CC(C=Cc2ccc(Oc3ccc([N+](=O)[O-])cc3)cc2)=[N+]2C1=Cc1ccc(CCC(=O)O)n1[B-]2(F)F` [BAA-32a], for which the “Stokes Shift” value is given as 10 nm, the “λmax ABS” value was determined as 574 nm, the “λmax EM” value came to 584 nm and the “FWHM (full-width-at half max)” value came to 32. In addition, the “φfl (quantum yield)” value came to 0.23.

Take `CC1=CC(C=Cc2ccc(Br)cc2S(C)(=O)=O)=[N+]2C1=Cc1ccc(CCC(=O)O)n1[B-]2(F)F` [BAA-33a]: the “Stokes Shift” value is listed as 12 nm, the “λmax ABS” value worked out at 575 nm, the “λmax EM” value was determined as 587 nm and the “FWHM (full-width-at half max)” value is on record as 35. In addition, the “φfl (quantum yield)” value is reported as 0.15.

For the compound `CC1=CC(C=Cc2cnc(-c3ccc(Cl)cc3)s2)=[N+]2C1=Cc1ccc(C(=Cc3cnc(-c4ccc(Cl)cc4)s3)CC(=O)O)n1[B-]2(F)F` [BAA-34b], the “Stokes Shift” value stood at 11 nm, the “λmax ABS” value is 570 nm, the “λmax EM” value was 581 nm and the “FWHM (full-width-at half max)” value worked out at 31. For the same compound, the “φfl (quantum yield)” value amounted to 0.96.

Consider `CC1=CC(C=Cc2ccccc2Oc2ccc(C#N)cc2)=[N+]2C1=Cc1ccc(C(=Cc3ccccc3Oc3ccc(C#N)cc3)CC(=O)O)n1[B-]2(F)F` [BAA-35b], for which the “Stokes Shift” value turned out to be 9 nm, the “λmax ABS” value was found to be 571 nm, the “λmax EM” value is 580 nm and the “FWHM (full-width-at half max)” value was 32. The “φfl (quantum yield)” value is reported as 0.25.

In the case of `CC1=CC(C=Cc2ccc(OCc3sccc3C#N)cc2)=[N+]2C1=Cc1ccc(C(=Cc3ccc(OCc4sccc4C#N)cc3)CC(=O)O)n1[B-]2(F)F` [BAA-36b], the “Stokes Shift” value was found to be 13 nm, the “λmax ABS” value worked out at 579 nm, the “λmax EM” value was 592 nm and the “FWHM (full-width-at half max)” value amounted to 37. The “φfl (quantum yield)” value was 0.35.

On to `CC1=CC(C=Cc2ccc(-c3cccnc3)cc2)=[N+]2C1=Cc1ccc(CCC(=O)O)n1[B-]2(F)F` [BAA-37a], for which the “Stokes Shift” value came out at 10 nm, the “λmax ABS” value is recorded as 568 nm, the “λmax EM” value was 578 nm and the “FWHM (full-width-at half max)” value came out at 55. In addition, the “φfl (quantum yield)” value is reported as 0.54.

Regarding `CC1=CC(C=Cc2ccc(-c3cccnc3)cc2)=[N+]2C1=Cc1ccc(C(=Cc3ccc(-c4cccnc4)cc3)CC(=O)O)n1[B-]2(F)F` [BAA-37b], the “Stokes Shift” value stood at 9 nm, the “λmax ABS” value worked out at 569 nm, the “λmax EM” value amounted to 578 nm and the “FWHM (full-width-at half max)” value was found to be 30. For the same compound, the “φfl (quantum yield)” value is 0.55.

As to `CC1=CC(C=Cc2cccc(N3CCCC3)n2)=[N+]2C1=Cc1ccc(CCC(=O)O)n1[B-]2(F)F` [BAA-38a], the “Stokes Shift” value came to 2 nm, the “λmax ABS” value was determined as 579 nm, the “λmax EM” value came out at 581 nm and the “FWHM (full-width-at half max)” value was found to be 33. For the same compound, the “φfl (quantum yield)” value was 0.07.

Take `CC1=CC(C=Cc2ccc(Cl)nc2)=[N+]2C1=Cc1ccc(CCC(=O)O)n1[B-]2(F)F` [BAA-39a]: the “Stokes Shift” value worked out at 51 nm, the “λmax ABS” value was 606 nm, the “λmax EM” value is on record as 657 nm and the “FWHM (full-width-at half max)” value turned out to be 79. Besides, the “φfl (quantum yield)” value worked out at 0.19.

Take `COc1cc(C=CC2=[N+]3C(=Cc4ccc(C(=Cc5ccc(OCc6cccc(C(F)(F)F)c6)c(OC)c5)CC(=O)O)n4[B-]3(F)F)C(C)=C2)ccc1OCc1cccc(C(F)(F)F)c1` [BAA-40b]: the “Stokes Shift” value came out at 18 nm, the “λmax ABS” value amounted to 583 nm, the “λmax EM” value came to 601 nm and the “FWHM (full-width-at half max)” value was determined as 45. Further, the “φfl (quantum yield)” value is recorded as 0.26.

For the compound `COc1cc(C=CC2=[N+]3C(=Cc4ccc(C(=Cc5ccc(OCc6ccccc6C)c(OC)c5)CC(=O)O)n4[B-]3(F)F)C(C)=C2)ccc1OCc1ccccc1C` [BAA-41b], the “Stokes Shift” value was found to be 20 nm, the “λmax ABS” value is 582 nm, the “λmax EM” value is given as 602 nm and the “FWHM (full-width-at half max)” value stood at 47. In addition, the “φfl (quantum yield)” value amounted to 0.36.

Take `CC1=CC(C=Cc2ccc(OC(=O)c3ccc(Cl)cc3Cl)cc2)=[N+]2C1=Cc1ccc(CCC(=O)O)n1[B-]2(F)F` [BAA-42a]: the “Stokes Shift” value is on record as 10 nm, the “λmax ABS” value stood at 570 nm, the “λmax EM” value is given as 580 nm and the “FWHM (full-width-at half max)” value came out at 30. Further, the “φfl (quantum yield)” value worked out at 0.36.

Take `CC1=CC(C=Cc2ccc(OC(=O)c3ccc(Cl)cc3)cc2)=[N+]2C1=Cc1ccc(CCC(=O)O)n1[B-]2(F)F` [BAA-43a]: the “Stokes Shift” value came to 10 nm, the “λmax ABS” value was found to be 569 nm, the “λmax EM” value turned out to be 579 nm and the “FWHM (full-width-at half max)” value turned out to be 31. Moreover, the “φfl (quantum yield)” value is recorded as 0.45.

As for `COc1cc(C=CC2=[N+]3C(=Cc4ccc(C(=Cc5ccc(OCc6cccc(C(F)(F)F)c6)c(OC)c5)CC(=O)O)n4[B-]3(F)F)C(C)=C2)ccc1OCc1cccc(C(F)(F)F)c1` [BAA-44b], the “Stokes Shift” value turned out to be 18 nm, the “λmax ABS” value was determined as 582 nm, the “λmax EM” value amounted to 600 nm and the “FWHM (full-width-at half max)” value is given as 43. In addition, the “φfl (quantum yield)” value is reported as 0.28.

As for `CCOc1ccc(C=CC2=[N+]3C(=Cc4ccc(CCC(=O)O)n4[B-]3(F)F)C(C)=C2)c(OCC)c1` [BAA-47a], the “Stokes Shift” value is reported as 22 nm, the “λmax ABS” value was found to be 589 nm, the “λmax EM” value came out at 611 nm and the “FWHM (full-width-at half max)” value was found to be 47. The “φfl (quantum yield)” value is on record as 0.33.

With `CC1=CC(C=Cc2c[nH]c3ccc(OCc4ccccc4)cc23)=[N+]2C1=Cc1ccc(CCC(=O)O)n1[B-]2(F)F` [BAA-48a], the “Stokes Shift” value is 38 nm, the “λmax ABS” value is 603 nm, the “λmax EM” value came out at 641 nm and the “FWHM (full-width-at half max)” value amounted to 60. Besides, the “φfl (quantum yield)” value is 0.45.

In the case of `CC1=CC(C=Cc2cc(-n3ccnc3)ccc2C)=[N+]2C1=Cc1ccc(CCC(=O)O)n1[B-]2(F)F` [BAA-50a], the “Stokes Shift” value stood at 10 nm, the “λmax ABS” value came out at 571 nm, the “λmax EM” value came to 581 nm and the “FWHM (full-width-at half max)” value was found to be 33. The “φfl (quantum yield)” value turned out to be 0.28.

Take `CC1=CC(C=Cc2cc(-n3ccnc3)ccc2C)=[N+]2C1=Cc1ccc(C(=Cc3cc(-n4ccnc4)ccc3C)CC(=O)O)n1[B-]2(F)F` [BAA-50b]: the “Stokes Shift” value was found to be 9 nm, the “λmax ABS” value is 572 nm, the “λmax EM” value is 581 nm and the “FWHM (full-width-at half max)” value is listed as 34. Moreover, the “φfl (quantum yield)” value amounted to 0.12.
